We go through six compounds from patent publication US20250000766A1, “ANTIMICROBIAL ESTERS FOR SKIN AND SCALP CARE” (SYMRISE AG, priority 2021, published 2025).

For one test, the system named is M. restricta CBS 7877. Description: Agar dilution test, growth inhibition (MIC) of M. restricta CBS 7877. The test is classed as cell-based. To be noted: MLN agar, 7 days at 30° C. How it is done:
(§1) The fatty acid esters and their mixtures were tested for growth inhibition against Malassezia. The following reference strains were included:
(§2) Tests were performed in 6 well plates on solid media using agar dilution tests. Stock solutions of test substances were prepared in DMSO. Lower test concentrations were obtained by diluting stock solutions in DMSO.
(§3) Briefly, microorganisms are inoculated on modified Leeming & Notman (MLN) agar. A well grown plate is harvested in a 0.8% NaCl solution. Dilutions of test substances are prepared according to the concentration range required for the test. 5 μl of the test sample and controls are complemented with 500 μl MLN agar and mixed by shaking. 200 μl of liquid MLN per well are added onto the solidified agar. Afterwards, 20 μl of inoculum solution is added, with except of the blanks, and samples are incubated for 7 days at 30° C. Typical concentrations to be tested are 5000 ppm, 2500 ppm, and 1:1 dilutions from 1000 ppm (500 ppm, 250 ppm, etc).
(§4) Appropriate controls are included to show the growth of organisms without antifungal substances and antifungal activity of reference substances.
A general note: In agar dilution the substance is mixed into plates at graded concentrations.

In another test the test system is M. globosa CBS 7966. Description: Agar dilution test, growth inhibition (MIC) of M. globosa CBS 7966. In kind it is cell-based. The note with it: MLN agar, 7 days at 30° C. Here is the method: as §1, §2, §3, §4
The next test has as its system M. sympodialis DSM 6171. The experiment in a line: Agar dilution test, growth inhibition (MIC) of M. sympodialis DSM 6171. The test is classed as cell-based. The note with it: MLN agar, 7 days at 30° C. Here is the method:
as §1, §2, §3, §4

Another test deals with M. globosa. Also on record: unit not given here. To be noted: cited from earlier work.
In a further test the test system is M. sympodialis. More on the design: unit not given here. To be noted: cited from earlier work.
Another test deals with M. restricta. Also on record: unit not given here. To be noted: M. restricta strain 7877; cited from earlier work.

Where two headings read alike, the source gives them in different places.

For the compound xylityl sesquicaprylate, the “Minimal inhibitory concentration (MIC)” value in the test on M. restricta CBS 7877 is recorded as 2.500 ppm; in the test on M. globosa CBS 7966, 1.000 ppm; with M. sympodialis DSM 6171, 2.500 ppm.

`CCCCCCCC(=O)OCC(O)CO` (stereo not drawn) [Glyceryl monocaprylate, glyceryl monocaprylate]: the MIC was 1,000 in the test with M. globosa (M. globosa strain 7705); 1,000 in the test with M. globosa (M. globosa strain 7966); 2,000 in the test with M. sympodialis (M. sympodialis strain 6171); 1,000 in the test on M. sympodialis (M. sympodialis strain 7222); 1,000 in the test with M. sympodialis (M. sympodialis strain 7979); 1,000 with M. sympodialis (M. sympodialis strain 42132). The MIC in the test with M. restricta is listed as 300.

Take “polyglyceryl-3 caprylate [Polyglyceryl-3-caprylate]”: the “Minimal inhibitory concentration (MIC)” value with M. globosa CBS 7966 was determined as 1.000 ppm; with M. sympodialis DSM 6171, 2.500 ppm.

With `CCCCCCCC(=O)OCCCO` [3-Hydroxypropyl caprylate, 3-hydroxypropyl caprylate], the MIC with M. globosa (M. globosa strain 7705) is on record as 1,000; in the test on M. globosa (M. globosa strain 7966), 1,000; in the test with M. globosa (M. globosa strain PM1), 500; in the test on M. sympodialis (M. sympodialis strain 6171) it was 2,000; in the test with M. sympodialis (M. sympodialis strain 7222), 1,000; with M. sympodialis (M. sympodialis strain 7979), 2,000. Further, the MIC in the test on M. sympodialis (M. sympodialis strain 42132) and in the test on M. restricta was 1,000 in each case.

In the case of sorbitan caprylate, the “Minimal inhibitory concentration (MIC)” value in the test on M. restricta CBS 7877 is on record as 2.500 ppm; in the test on M. globosa CBS 7966 it was 1.000 ppm; with M. sympodialis DSM 6171, 5.000 ppm.

For the compound `CCCCCCCC(=O)OCC` [Ethyl caprylate, ethyl caprylate], the MIC in the test with M. globosa (M. globosa strain 7966), in the test on M. globosa (M. globosa strain PM1), in the test on M. sympodialis (M. sympodialis strain 6171), in the test on M. sympodialis (M. sympodialis strain 7222), in the test with M. sympodialis (M. sympodialis strain 7979) and in the test on M. sympodialis (M. sympodialis strain 42132) was 1,000 in each case. The MIC with M. restricta is on record as 4,000.
